# Laboratory results reported in patent publication US10519177B2, “Heterocyclic compounds and uses thereof” (Plexxikon Inc., priority 2013, dated 2019).
# Assays:
# MV-4-11 cells = assay: Oncology cell growth assay MV-4-11 (CellTiter Glo); type: cell-based; conditions: Homo sapiens, MV4-11, 72 h; MV-4-11, 3d growth; read-out: Cell activity (IC50 μM) MV-4-11 3d-Growth
# Outline: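 MV-4-11 AML cells (MLL-AF4), 3000 per well, exposed to 8-point 1:3 compound titration from 10 μM top concentration (0.2% DMSO) for 72 h. Viability by CellTiter Glo luminescence, normalized to DMSO controls; pIC50 from four-parameter curve fit.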
# BRD4-BD12 (1-477) = BRD4-BD12 (1-477) (Homo sapiens (Human), UniProt O60885); assay: Alphascreen binding assay BRD4-BD12; conditions: BRD4(1 2) H4; read-out: Biochemical activity (IC50 μM) BRD4(1 2) H4
# Outline: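 First, compound was preincubated 1 h at room temperature with the His-tagged BRD4 protein (BD1 44-164 or tandem BD12 1-477) and acetylated H4 peptide. Next, donor and acceptor beads were added at 7.5 μg/ml final. After 30 min, AlphaScreen emission was recorded.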
SMILES,IC50 (MV-4-11 cells) [µM],IC50 (BRD4-BD12 (1-477)) [µM]
"CC[C@@H](c1ccccn1)n1cc(I)c2ncc(-c3c(C)noc3C)cc21 [P-0963, 4-[3-iodo-1-[(1S)-1-(2-pyridyl)propyl]pyrrolo[3,2-b]pyridin-6-yl]-3,5-dimethyl-isoxazole]",< 1,< 1
"Cc1noc(C)c1-c1cnc2c(-c3cccc(NS(C)(=O)=O)c3)cn([C@@H](C)c3ccccn3)c2c1 [P-0981, N-[3-[6-(3,5-dimethylisoxazol-4-yl)-1-[(1S)-1-(2-pyridyl)ethyl]pyrrolo[3,2-b]pyridin-3-yl]phenyl]methanesulfonamide]",< 1,< 1
"Cc1noc(C)c1-c1cnc2c(-c3ccc(C4(C(=O)O)CC4)cc3)cn([C@@H](C)c3ccccn3)c2c1 [P-0955, 1-[4-[6-(3,5-dimethylisoxazol-4-yl)-1-[(1S)-1-(2-pyridyl)ethyl]pyrrolo[3,2-b]pyridin-3-yl]phenyl]cyclopropanecarboxylic acid]",< 1,< 1
"Cc1noc(C)c1-c1cnc2c(-c3ccc(C(C)(C)C#N)cc3)cn(CC3(C)CCOCC3)c2c1 [P-0946, 2-[4-[6-(3,5-dimethylisoxazol-4-yl)-1-[(4-methyltetrahydropyran-4-yl)methyl]pyrrolo[3,2-b]pyridin-3-yl]phenyl]-2-methyl-propanenitrile]",< 1,< 1
"CNC(=O)c1ccc(-c2cn([C@@H](C)c3ccccn3)c3cc(-c4c(C)noc4C)cnc23)cn1 [P-0978, 5-[6-(3,5-dimethylisoxazol-4-yl)-1-[(1S)-1-(2-pyridyl)ethyl]pyrrolo[3,2-b]pyridin-3-yl]-N-methyl-pyridine-2-carboxamide]",< 1,< 1
"CC[C@@H](c1ccccn1)n1cc(-c2ccc(F)c(C(=O)O)c2)c2ncc(-c3c(C)noc3C)cc21 [P-1023, 5-[6-(3,5-dimethylisoxazol-4-yl)-1-[(1S)-1-(2-pyridyl)propyl]pyrrolo[3,2-b]pyridin-3-yl]-2-fluoro-benzoic acid]",< 1,< 1
"Cc1noc(C)c1-c1ccc2c(-c3ccc(C(=O)O)cc3F)cn(C(c3ccccc3)c3ccccn3)c2c1 (stereo not shown) [P-1044, 4-[6-(3,5-dimethylisoxazol-4-yl)-1-[phenyl(2-pyridyl)methyl]indol-3-yl]-3-fluoro-benzoic acid]",< 1,< 1
"CC[C@H](c1ccccn1)n1cc(I)c2ncc(-c3c(C)noc3C)cc21 [P-0956, 4-[3-iodo-1-[(1R)-1-(2-pyridyl)propyl]pyrrolo[3,2-b]pyridin-6-yl]-3,5-dimethyl-isoxazole]",< 1,< 1
"Cc1noc(C)c1-c1cnc2c(-c3ccc(CC(=O)O)cc3)cn(C(c3ccccn3)C3CCC3)c2c1 (stereo not shown) [P-1015, 2-[4-[1-[cyclobutyl(2-pyridyl)methyl]-6-(3,5-dimethylisoxazol-4-yl)pyrrolo[3,2-b]pyridin-3-yl]phenyl]acetic acid]",< 1,< 1
"Cc1noc(C)c1-c1ccc2c(-c3ccc(C(=O)O)cc3)cn(C(c3ccccc3)c3ccccn3)c2c1 (stereo not shown) [P-0992, 4-[6-(3,5-dimethylisoxazol-4-yl)-1-[phenyl(2-pyridyl)methyl]indol-3-yl]benzoic acid]",< 1,< 1
"COC(=O)C1(c2ccc(-c3cn([C@@H](C)c4ccccn4)c4cc(-c5c(C)noc5C)cnc34)cc2)CC1 [P-0942, methyl 1-[4-[6-(3,5-dimethylisoxazol-4-yl)-1-[(1S)-1-(2-pyridyl)ethyl]pyrrolo[3,2-b]pyridin-3-yl]phenyl]cyclopropanecarboxylate]",< 1,< 1
"[2H]C([2H])([2H])c1noc(C([2H])([2H])[2H])c1-c1cnc2c(-c3ccc(C(=O)O)cc3)cn(CC3CCC(F)(F)CC3)c2c1 [P-0908, 4-[6-[3,5-bis(trideuteriomethyl)isoxazol-4-yl]-1-[(4,4-difluorocyclohexyl)methyl]pyrrolo [3,2-b]pyridin-3-yl]benzoic acid]",< 1,< 1
"COC(=O)Cc1ccc(-c2cn(C(c3ccccn3)C3CCCCC3)c3cc(-c4c(C)noc4C)cnc23)cc1 (stereo not shown) [P-1017, methyl 2-[4-[1-[cyclohexyl(2-pyridyl)methyl]-6-(3,5-dimethylisoxazol-4-yl)pyrrolo[3,2-b]pyridin-3-yl]phenyl]acetate]",< 1,< 1
"COc1cccc(Cn2cc(I)c3ncc(-c4c(C)noc4C)cc32)n1 [P-0929, 4-[3-iodo-1-[(6-methoxy-2-pyridyl)methyl]pyrrolo[3,2-b]pyridin-6-yl]-3,5-dimethyl-isoxazole]",< 1,< 1
"COC(=O)c1ccc(-n2cc(P(=O)(c3ccccc3)c3ccccc3)c3cc(-c4c(C)noc4C)cnc32)cc1 [P-0950, methyl 4-[5-(3,5-dimethylisoxazol-4-yl)-3-diphenylphosphoryl-pyrrolo[2,3-b]pyridin-1-yl]benzoate]",< 1,< 1
"Cc1noc(C)c1-c1cnc2c(-c3ccc(C(=O)O)cc3)cn(Cc3ccncc3)c2c1 [P-0937, 4-[6-(3,5-dimethylisoxazol-4-yl)-1-(4-pyridylmethyl)pyrrolo[3,2-b]pyridin-3-yl]benzoic acid]",< 1,< 1
"Cc1ccc(-c2cn(C(c3ccccc3)c3ccccn3)c3cc(-c4c(C)noc4C)cnc23)cc1 (stereo not shown) [P-0901, 3,5-dimethyl-4-[1-[phenyl(2-pyridyl)methyl]-3-(p-tolyl)pyrrolo[3,2-b]pyridin-6-yl]isoxazole]",< 1,< 1
"COc1cccc(Cn2cc(-c3ccc(C(=O)O)cc3)c3ncc(-c4c(C)noc4C)cc32)n1 [P-0931, 4-[6-(3,5-dimethylisoxazol-4-yl)-1-[(6-methoxy-2-pyridyl)methyl]pyrrolo[3,2-b]pyridin-3-yl]benzoic acid]",< 1,< 1
"CC[C@@H](c1ccccn1)n1cc(-c2ccc(CC(=O)O)cc2)c2ncc(-c3c(C)noc3C)cc21 [P-0986, 2-[4-[6-(3,5-dimethylisoxazol-4-yl)-1-[(1S)-1-(2-pyridyl)propyl]pyrrolo[3,2-b]pyridin-3-yl]phenyl]acetic acid]",< 1,< 1
"COC(=O)c1ccc(-c2cn(Cc3ccccc3C#N)c3cc(-c4c(C)noc4C)cnc23)cc1 [P-0922, methyl 4-[1-[(2-cyanophenyl)methyl]-6-(3,5-dimethylisoxazol-4-yl)pyrrolo[3,2-b]pyridin-3-yl]benzoate]",< 1,< 1
"CCOCc1ccc(-c2cn(CC3CCC(F)(F)CC3)c3cc(-c4c(C)noc4C)cnc23)cc1 [P-0909, 4-[1-[(4,4-difluorocyclohexyl)methyl]-3-[4-(ethoxymethyl)phenyl]pyrrolo[3,2-b]pyridin-6-yl]-3,5-dimethyl-isoxazole]",< 1,< 1
"COC(=O)Cc1ccc(-c2cn(Cc3ccccn3)c3cc(-c4c(C)noc4C)cnc23)cc1 [P-0965, methyl 2-[4-[6-(3,5-dimethylisoxazol-4-yl)-1-(2-pyridylmethyl)pyrrolo[3,2-b]pyridin-3-yl]phenyl]acetate]",< 1,< 1
"Cc1noc(C)c1-c1cnc2c(I)cn(C(c3ccccn3)C3CCOCC3)c2c1 (stereo not shown) [P-1034, 4-[3-iodo-1-[2-pyridyl(tetrahydropyran-4-yl)methyl]pyrrolo[3,2-b]pyridin-6-yl]-3,5-dimethyl-isoxazole]",< 1,< 1
